Measured values as given in ChEMBL document CHEMBL1201862, “PubChem BioAssay data set” (2004).
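Values below derive from 48-hour exposures of cells grown in 96-well plates, with endpoints linearly interpolated between the two concentrations bracketing the appropriate inhibition level. Abbreviation: GI50, concentration required for 50% inhibition of growth.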 Active and inactive are the calls of the source. No stated cut-off is given here; in the data, active = GI50 up to about 1.1 µM and inactive = higher.

Experiments:
Test in all cases: NCI-60 cell line screen, 48 h
K562 = tested on: K562
NCI/ADR-RES = tested on: NCI/ADR-RES
HCT-15 = tested on: HCT-15
A549 = tested on: A549
MDA-MB-435 = tested on: MDA-MB-435
HT-29 = tested on: HT-29
COLO 205 = tested on: COLO 205
NCI-H522 = tested on: NCI-H522
SK-OV-3 = tested on: SK-OV-3
NCI-H460 = tested on: NCI-H460
UACC-257 = tested on: UACC-257
SN12C = tested on: SN12C
RPMI-8226 = tested on: RPMI-8226
EKVX = tested on: EKVX
MCF7 = tested on: MCF7
SK-MEL-2 = tested on: SK-MEL-2
Malme-3M = tested on: Malme-3M

| SMILES | GI50 (K562) | GI50 (NCI/ADR-RES) | GI50 (HCT-15) [µM] | GI50 (A549) | GI50 (MDA-MB-435) | GI50 (HT-29) | GI50 (COLO 205) | GI50 (NCI-H522) | GI50 (SK-OV-3) | GI50 (NCI-H460) | GI50 (UACC-257) | GI50 (SN12C) | GI50 (RPMI-8226) | GI50 (EKVX) | GI50 (MCF7) | GI50 (SK-MEL-2) | GI50 (Malme-3M) |
| --- | --- | --- | --- | --- | --- | --- | --- | --- | --- | --- | --- | --- | --- | --- | --- | --- | --- |
| Cc1oc2c(cc(O)c3cc(O)ccc32)c2cccc1-2 | > 100 µM (inactive) | > 100 µM (inactive) | > 100 | > 100 µM (inactive) | > 100 µM (inactive) | > 100 µM (inactive) | > 100 µM (inactive) | 35.2 µM (inactive) | > 100 µM (inactive) | > 100 µM (inactive) | > 100 µM (inactive) | > 100 µM (inactive) | > 100 µM (inactive) | > 100 µM (inactive) | 33.4 µM (inactive) | > 100 µM (inactive) | > 100 µM (inactive) |
| [N-]=[N+]=Nc1ccc2c(c1)Sc1ccccc1N2CCCCN1CCN(C(=O)CCNC(=O)Cc2ccc(C(=O)c3ccccc3)cc2)CC1 | 1.68 µM (inactive) | 4.05 µM (inactive) | 2.64 | 4.52 µM (inactive) | 2.2 µM (inactive) | 1.98 µM (inactive) | 3.39 µM (inactive) | 2.45 µM (inactive) | 27.9 µM (inactive) | 3.72 µM (inactive) | 4.05 µM (inactive) | 7.26 µM (inactive) | 1.58 µM (inactive) | 3.18 µM (inactive) | 2.33 µM (inactive) | 4.29 µM (inactive) | 5.2 µM (inactive) |
| COc1ccc(C(OCC2OC(n3ccc(NC(=O)c4ccccc4)nc3=O)C(O)C2O)(c2ccccc2)c2ccccc2)cc1 (stereo not drawn) | 2.38 µM (inactive) | 2.37 µM (inactive) | 1.82 | 4.06 µM (inactive) | 2.63 µM (inactive) | 1.53 µM (inactive) | 2 µM (inactive) | 2.48 µM (inactive) | 7.28 µM (inactive) | 1.98 µM (inactive) | 8.39 µM (inactive) | 1.82 µM (inactive) | 2.42 µM (inactive) | 2.72 µM (inactive) | 2.22 µM (inactive) | 3.33 µM (inactive) | 1.89 µM (inactive) |
| C[C@@H]1CCC2C(C)(C)C(/C=C\C=O)C3(C)OC213 (stereo partly drawn) | 33.6 µM (inactive) | 30 µM (inactive) | 25.4 | > 100 µM (inactive) | 27.5 µM (inactive) | 26.4 µM (inactive) | 25.4 µM (inactive) | 46 µM (inactive) | 44.6 µM (inactive) | 42 µM (inactive) | 45.8 µM (inactive) | – | 28.7 µM (inactive) | 37.8 µM (inactive) | 40.6 µM (inactive) | 42.9 µM (inactive) | 24.5 µM (inactive) |
| Nc1nc(O)nc2snnc12 | 7.26 µM (inactive) | 32.6 µM (inactive) | > 89.7 | > 100 µM (inactive) | 4.59 µM (inactive) | > 100 µM (inactive) | > 100 µM (inactive) | > 100 µM (inactive) | 50.2 µM (inactive) | > 100 µM (inactive) | 24.7 µM (inactive) | > 27.4 µM (inactive) | 5.7 µM (inactive) | > 100 µM (inactive) | > 100 µM (inactive) | 1.75 µM (inactive) | 8.65 µM (inactive) |
| CCN1CCCC(Nc2cc(C)nc(NC(=N)Nc3ccc(Cl)c(Cl)c3)n2)C1 (stereo not drawn) | 0.217 µM (active) | 2.78 µM (inactive) | 1.74 | 1.91 µM (inactive) | 1.49 µM (inactive) | 3.06 µM (inactive) | 1.27 µM (inactive) | 1.24 µM (inactive) | 2.78 µM (inactive) | 1.26 µM (inactive) | – | 2.58 µM (inactive) | 0.455 µM (active) | 2.86 µM (inactive) | 1.79 µM (inactive) | 2.04 µM (inactive) | 2.39 µM (inactive) |
| C=C1c2nc3ccccc3n2C=C(c2ccccc2)N1c1ccc(OC)cc1 | 45.4 µM (inactive) | 17.7 µM (inactive) | 6.9 | 18.5 µM (inactive) | 33.5 µM (inactive) | – | 25.4 µM (inactive) | 1.63 µM (inactive) | 34.6 µM (inactive) | 11.7 µM (inactive) | 31.8 µM (inactive) | 65.3 µM (inactive) | 12.4 µM (inactive) | 23.9 µM (inactive) | 6.81 µM (inactive) | 28.6 µM (inactive) | 14.2 µM (inactive) |
| CCN1/C(=C/c2ccc3ccccc3[n+]2CC)C=Cc2ccccc21 | 0.262 µM (active) | 21.9 µM (inactive) | 4.89 | 0.764 µM (active) | 0.316 µM (active) | 1.14 µM (inactive) | 0.19 µM (active) | 0.266 µM (active) | 2.18 µM (inactive) | 0.333 µM (active) | 0.18 µM (active) | 0.649 µM (active) | 0.19 µM (active) | 1.72 µM (inactive) | 0.367 µM (active) | 0.687 µM (active) | 1.39 µM (inactive) |
